What was measured:
[1] = target: T1, Lysine-specific demethylase 4C (Homo sapiens, UniProt Q9H3R0); assay: Inhibition of N-terminal His6-tagged KDM4C (1 to 352 residues) (unknown origin) expressed in Escherichia coli Rosetta 2(DE3)pLysS using ARTKQTARK(Me3)STGGKA peptide/100 uM alpha-ketoglutarate as substrate/cofactor incubated for 45 mins by MALDI assay
T1 sequence (Q9H3R0 whole entry): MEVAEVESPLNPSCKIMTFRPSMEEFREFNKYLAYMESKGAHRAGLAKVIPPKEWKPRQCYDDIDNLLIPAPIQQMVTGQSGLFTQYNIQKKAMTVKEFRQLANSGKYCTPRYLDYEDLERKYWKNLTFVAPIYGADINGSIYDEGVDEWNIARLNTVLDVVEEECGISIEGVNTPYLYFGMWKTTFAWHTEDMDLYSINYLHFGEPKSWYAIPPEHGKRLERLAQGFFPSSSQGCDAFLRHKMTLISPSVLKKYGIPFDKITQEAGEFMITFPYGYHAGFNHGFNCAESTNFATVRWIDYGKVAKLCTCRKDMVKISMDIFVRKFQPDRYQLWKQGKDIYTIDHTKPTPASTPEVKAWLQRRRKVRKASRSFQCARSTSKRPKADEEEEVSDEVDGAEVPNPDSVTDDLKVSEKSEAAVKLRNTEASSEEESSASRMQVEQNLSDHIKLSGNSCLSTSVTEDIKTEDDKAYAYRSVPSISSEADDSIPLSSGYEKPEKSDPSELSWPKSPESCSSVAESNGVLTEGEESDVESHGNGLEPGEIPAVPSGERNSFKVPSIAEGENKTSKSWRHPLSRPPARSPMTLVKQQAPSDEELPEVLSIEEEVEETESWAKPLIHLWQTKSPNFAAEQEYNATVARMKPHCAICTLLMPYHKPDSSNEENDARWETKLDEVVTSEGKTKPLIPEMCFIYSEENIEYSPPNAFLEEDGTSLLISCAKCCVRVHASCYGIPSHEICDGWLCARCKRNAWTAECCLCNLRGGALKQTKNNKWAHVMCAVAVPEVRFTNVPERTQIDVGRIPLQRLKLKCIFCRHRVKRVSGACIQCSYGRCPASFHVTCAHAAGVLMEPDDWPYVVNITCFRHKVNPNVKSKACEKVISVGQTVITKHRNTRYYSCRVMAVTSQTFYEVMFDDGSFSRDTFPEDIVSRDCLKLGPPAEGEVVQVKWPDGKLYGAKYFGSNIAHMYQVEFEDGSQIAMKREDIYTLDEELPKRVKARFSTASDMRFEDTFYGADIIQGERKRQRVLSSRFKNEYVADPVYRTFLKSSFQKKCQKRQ

[2] = target: T2, Lysine-specific demethylase 2A (Homo sapiens, UniProt Q9Y2K7); assay: Inhibition of KDM2A (unknown origin) expressed in Escherichia coli using Biotin H3 (28 to 48 residues) Me2 KDM2A Cognate Ligande/10 uM alpha-ketoglutarate as substrate/cofactor preincubated for 15 mins followed by substrate addition measured after 30 mins by alphascreen assay
T2 sequence (Q9Y2K7 whole entry): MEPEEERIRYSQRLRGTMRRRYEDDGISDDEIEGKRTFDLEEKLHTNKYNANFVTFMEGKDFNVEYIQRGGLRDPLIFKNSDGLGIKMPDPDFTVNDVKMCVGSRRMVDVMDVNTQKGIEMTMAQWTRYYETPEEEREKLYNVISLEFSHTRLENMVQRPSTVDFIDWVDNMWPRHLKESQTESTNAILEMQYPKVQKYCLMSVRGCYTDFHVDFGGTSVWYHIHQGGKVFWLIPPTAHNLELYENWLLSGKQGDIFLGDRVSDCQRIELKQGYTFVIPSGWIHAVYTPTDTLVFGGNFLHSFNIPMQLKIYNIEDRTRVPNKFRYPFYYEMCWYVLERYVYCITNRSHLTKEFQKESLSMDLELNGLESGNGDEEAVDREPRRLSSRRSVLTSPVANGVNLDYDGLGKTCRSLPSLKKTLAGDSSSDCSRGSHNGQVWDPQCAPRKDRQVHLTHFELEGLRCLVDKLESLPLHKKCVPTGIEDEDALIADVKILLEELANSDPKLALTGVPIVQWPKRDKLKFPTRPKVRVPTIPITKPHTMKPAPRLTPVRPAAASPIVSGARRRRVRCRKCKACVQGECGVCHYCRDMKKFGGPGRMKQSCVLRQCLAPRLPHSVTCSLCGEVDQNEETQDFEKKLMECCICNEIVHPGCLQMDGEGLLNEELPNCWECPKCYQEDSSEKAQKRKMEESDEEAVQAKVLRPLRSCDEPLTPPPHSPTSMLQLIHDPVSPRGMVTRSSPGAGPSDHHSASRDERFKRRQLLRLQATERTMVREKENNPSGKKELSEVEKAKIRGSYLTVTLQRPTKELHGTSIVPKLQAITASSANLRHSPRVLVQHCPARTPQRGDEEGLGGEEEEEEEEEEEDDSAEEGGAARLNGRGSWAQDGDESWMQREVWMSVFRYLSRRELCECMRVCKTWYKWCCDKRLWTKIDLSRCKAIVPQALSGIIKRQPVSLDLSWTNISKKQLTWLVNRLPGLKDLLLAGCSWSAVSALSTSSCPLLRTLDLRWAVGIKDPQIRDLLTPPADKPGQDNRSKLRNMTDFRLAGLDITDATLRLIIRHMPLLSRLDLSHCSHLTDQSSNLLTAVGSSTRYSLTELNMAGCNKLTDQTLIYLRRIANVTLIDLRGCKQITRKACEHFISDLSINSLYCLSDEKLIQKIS

[3] = target: T3, Lysine-specific demethylase 4D (Homo sapiens, UniProt Q6B0I6); assay: Inhibition of KDM4D (unknown origin) expressed in Escherichia coli using H3 (1 to 21 residues) K9Me3-GGK-Biotin KDM4 Cognate Ligand/10 uM alpha-ketoglutarate as substrate/cofactor preincubated for 5 mins followed by substrate addition measured after 20 mins by alphascreen assay
T3 sequence (Q6B0I6 whole entry): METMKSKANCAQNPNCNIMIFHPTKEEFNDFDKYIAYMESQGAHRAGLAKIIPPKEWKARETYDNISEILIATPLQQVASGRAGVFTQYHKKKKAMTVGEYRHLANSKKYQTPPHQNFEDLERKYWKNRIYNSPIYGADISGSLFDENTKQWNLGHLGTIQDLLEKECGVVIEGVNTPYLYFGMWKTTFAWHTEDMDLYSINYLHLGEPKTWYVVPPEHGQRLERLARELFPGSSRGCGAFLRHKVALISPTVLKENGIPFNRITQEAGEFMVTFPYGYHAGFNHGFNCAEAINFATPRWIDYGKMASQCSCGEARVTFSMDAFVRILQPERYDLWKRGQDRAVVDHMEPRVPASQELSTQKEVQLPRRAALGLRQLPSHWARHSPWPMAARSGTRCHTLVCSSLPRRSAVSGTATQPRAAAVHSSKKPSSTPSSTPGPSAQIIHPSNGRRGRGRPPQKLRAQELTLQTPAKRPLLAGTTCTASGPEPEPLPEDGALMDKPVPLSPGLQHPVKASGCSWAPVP

SMILES: Cc1cc(C(=O)Nc2ccc(O)c(-c3cc(C(=O)O)ccn3)c2)no1
- IC50 [1]: 16 µM
- IC50 [2]: 76 µM
- IC50 [3]: 9.2 µM

SMILES: COc1cccc(CC(=O)Nc2ccc(O)c(-c3cc(C(=O)O)ccn3)c2)c1
- IC50 [1]: 7.3 µM
- IC50 [2]: 89 µM
- IC50 [3]: 11 µM

SMILES: CC(=O)Nc1ccc(O)c(-c2cc(C(=O)O)ccn2)c1
- IC50 [1]: 63 µM
- IC50 [2]: > 100 µM
- IC50 [3]: 14 µM

SMILES: COCC(=O)Nc1ccc(O)c(-c2cc(C(=O)O)ccn2)c1
- IC50 [1]: 47 µM
- IC50 [2]: 91 µM
- IC50 [3]: 4.2 µM

SMILES: O=C(O)c1ccnc(-c2cc(NC(=O)c3ccc(O)cc3)ccc2O)c1
- IC50 [1]: 5.9 µM
- IC50 [2]: 89 µM
- IC50 [3]: 13 µM
